Reference: the supplement of paper PMC10307832

Tests used:
Test in all cases: relative viability (nuclei count vs DMSO), 5 days (fraction); higher = more cells survive
[1] = compound: C[C@@H](C(=O)N[C@@H](C1CCCCC1)C(=O)N2CCC[C@H]2C(=O)N[C@@H]3[C@@H](CC4=CC=CC=C34)OCC#CC#CCO[C@@H]5CC6=CC=CC=C6[C@@H]5NC(=O)[C@@H]7CCCN7C(=O)[C@H](C8CCCCC8)NC(=O)[C@H](C)NC)NC [AZD5582] + COc1cccc2cc(-c3nc([C@H]4CC[C@H](C(=O)O)CC4)n4ncnc(N)c34)[nH]c12 [OSI-027] (partner 0.5 µM)
Method in brief: (§1)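 Each reported value is a median over duplicate plates. It expresses relative viability: treated-well nuclei count divided by vehicle-well nuclei count. Lung cancer cell lines in 1536-well plates were dosed by pin tool a day after seeding, alone with one drug or with a fixed anchor-drug dose plus five library-drug doses (not always all listed) in √10 steps, and nuclei were counted after 5 days.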

[2] = compound: C[C@@H](C(=O)N[C@@H](C1CCCCC1)C(=O)N2CCC[C@H]2C(=O)N[C@@H]3[C@@H](CC4=CC=CC=C34)OCC#CC#CCO[C@@H]5CC6=CC=CC=C6[C@@H]5NC(=O)[C@@H]7CCCN7C(=O)[C@H](C8CCCCC8)NC(=O)[C@H](C)NC)NC [AZD5582] + O=C(CCCCCCC(=O)Nc1ccccc1)NO [Vorinostat] (partner 1 µM)
Method in brief: as §1

[3] = compound: Cn1nnc2c(C(N)=O)ncn2c1=O [Temozolomide] + CC1(C)CCC(c2ccc(Cl)cc2)=C(CN2CCN(c3ccc(C(=O)NS(=O)(=O)c4ccc(N[C@H](CCN5CCOCC5)CSc5ccccc5)c(S(=O)(=O)C(F)(F)F)c4)cc3)CC2)C1 [Navitoclax] (partner 0.5 µM)
Method in brief: as §1

[4] = compound: Cn1nnc2c(C(N)=O)ncn2c1=O [Temozolomide] + C[C@]1(O)C[C@@H](c2nc(-c3ccc4ccc(-c5ccccc5)nc4c3)c3c(N)nccn32)C1 [Linsitinib] (partner 1 µM)
Method in brief: as §1

| Cell Line | relative viability ([1]; first compound 0.001581 µM) | relative viability ([1]; first compound 0.005 µM) | relative viability ([1]; first compound 0.01581 µM) | relative viability ([1]; first compound 0.05 µM) | relative viability ([2]; first compound 0.001581 µM) | relative viability ([2]; first compound 0.005 µM) | relative viability ([2]; first compound 0.01581 µM) | relative viability ([2]; first compound 0.05 µM) | relative viability ([3]; first compound 0.2 µM) | relative viability ([3]; first compound 0.6325 µM) | relative viability ([3]; first compound 2 µM) | relative viability ([3]; first compound 6.325 µM) | relative viability ([3]; first compound 20 µM) | relative viability ([4]; first compound 0.2 µM) | relative viability ([4]; first compound 0.6325 µM) | relative viability ([4]; first compound 2 µM) | relative viability ([4]; first compound 6.325 µM) | relative viability ([4]; first compound 20 µM) |
| --- | --- | --- | --- | --- | --- | --- | --- | --- | --- | --- | --- | --- | --- | --- | --- | --- | --- | --- |
| COR-L23 | 0.799 | 0.721 | 0.768 | 0.756 | 0.404 | 0.495 | 0.452 | 0.587 | 1.2 | 0.933 | 1.02 | 0.976 | 0.938 | 1.01 | 1.08 | 0.863 | 0.994 | 0.819 |
| COR-L 105 | 0.716 | 0.984 | 0.517 | 0.671 | 0.843 | 0.912 | 0.727 | 0.878 | 0.819 | 0.866 | 0.996 | 0.858 | 0.649 | 0.919 | 1.01 | 1.03 | 0.797 | 0.7 |
| EKVX | 0.667 | 0.852 | 0.687 | 0.778 | 0.72 | 0.934 | – | 0.932 | 0.856 | 0.962 | 0.902 | 0.976 | 0.597 | 0.442 | 1.05 | 1.04 | 1.06 | 0.707 |
| EMC-BAC-2 | 0.295 | 0.341 | 0.323 | 0.273 | 0.406 | 0.474 | 0.375 | 0.546 | 1.07 | 1.24 | 1.16 | 1.2 | 1.2 | 0.719 | 0.85 | 0.766 | 0.799 | 0.749 |
| EPLC-272H | 0.121 | – | 0.274 | 0.0867 | – | – | 0.429 | 0.074 | 1.15 | 1.01 | 1.12 | 0.996 | 0.879 | 1.13 | 1.13 | 1.38 | 1.11 | 0.812 |
| H3255 | 0.627 | 0.582 | 0.514 | 0.544 | 0.831 | 0.976 | 0.722 | 0.48 | – | 0.523 | 0.469 | 0.485 | 0.0789 | – | 0.963 | 0.927 | 0.959 | 0.145 |
| HARA | 0.414 | 0.544 | 0.362 | 0.307 | 0.659 | 0.69 | 0.441 | 0.672 | 1.19 | 1.17 | 1.24 | 1.13 | 1.2 | 0.593 | 0.985 | 1.09 | 0.933 | 0.863 |
| HCC-15 | 0.555 | 0.617 | 0.504 | 0.636 | 0.762 | 0.883 | 0.752 | 0.967 | 0.746 | 0.731 | 0.805 | 0.687 | 0.689 | 0.976 | 0.905 | 0.928 | 0.858 | 0.888 |
| HCC-44 | 0.42 | 0.39 | 0.251 | 0.255 | 1.04 | 1.01 | 1.08 | 1.04 | 0.972 | 1.02 | 0.913 | 0.966 | 0.983 | 0.668 | 0.741 | 0.681 | 0.718 | 0.562 |
| HCC-78 | 0.382 | 0.406 | 0.33 | 0.311 | 0.414 | 0.493 | 0.438 | 0.366 | 0.48 | 0.738 | 0.953 | 0.836 | 0.793 | 0.387 | 0.618 | 0.668 | 0.67 | 0.529 |
| HCC-366 | 0.654 | 0.995 | – | 0.934 | 0.239 | 0.398 | 0.186 | 0.425 | 1.07 | 1.18 | 1.14 | 1.17 | 0.918 | 0.607 | 0.708 | 0.72 | 0.709 | 0.762 |
| HCC-827 | 0.618 | 0.84 | 0.761 | 0.855 | 0.771 | 0.892 | 0.694 | 0.822 | 1.07 | 1.07 | 0.992 | 0.984 | 0.129 | 0.998 | 0.959 | 0.954 | 0.968 | 0.158 |
| HOP-62 | 0.727 | 0.837 | 0.83 | 0.83 | 0.506 | 0.663 | 0.41 | 0.547 | 1.05 | 1 | 1.13 | 0.941 | 1.14 | 1.05 | 1.01 | 0.895 | 0.832 | 0.866 |
| LC-2-ad | 0.823 | 1.05 | 0.725 | 0.957 | 0.697 | 0.726 | 0.704 | 0.804 | 0.598 | 0.437 | 0.358 | 0.374 | 0.336 | 0.795 | 0.823 | 0.808 | 0.751 | 0.807 |
| LCLC-97TM1 | 0.4 | 0.567 | 0.496 | 0.382 | 0.34 | 0.62 | 0.159 | 0.343 | 0.546 | 0.443 | 0.49 | 0.445 | 0.512 | 0.191 | 0.19 | 0.173 | 0.176 | 0.203 |
| LK-2 | 0.237 | 0.257 | 0.197 | 0.179 | 0.269 | 0.295 | 0.236 | 0.304 | 0.756 | 0.874 | 0.851 | 0.475 | 0.35 | 0.359 | 0.543 | 0.418 | 0.382 | 0.253 |
| LOU-NH91 | 0.752 | 0.739 | 0.705 | 0.711 | 0.867 | 0.872 | 0.794 | 0.842 | 0.395 | 0.738 | 0.702 | 0.596 | 0.361 | 0.534 | 0.955 | 1.01 | 0.932 | 0.505 |
